Measured values from ChEMBL document CHEMBL4819116, “Design, synthesis, and biological evaluation of stapled ascaphin-8 peptides” (Bioorg Med Chem, 2021).
Where a SMILES comes first, the peptide text is derived from it. Bridges are numbered along the chain shown (N, C = ends). [ ]: non-standard residue; d: D form. S8 = C=CCCCCCC[C@](C)(N)C(=O)O; S5 = C=CCCC[C@](C)(N)C(=O)O

Tests used:
A549 [1] = assay: Cytotoxicity against human A549 cells assessed as reduction in cell viability measured after 96 hrs b y CCK-8 assay; format: functional, cell-based; details: A549, 96 h
[2] = Helicity of the compound in TFE aqueous solution by CD spectroscopy; format: physicochemical; details: buffer
A549 [3] = assay: Inhibition of colony formation in human A549 cells measured after 14 days by crystal violet staining based light microscopy; format: functional, cell-based; details: dose 0-4 µM, time 14.0 day
LNCaP C4-2B = assay: Cytotoxicity against human LNCaP C4-2B cells assessed as reduction in cell viability measured after 96 hrs b y CCK-8 assay; format: functional, cell-based
trypsin [4] = target: T1, trypsin (Homo sapiens, UniProt P07477+P07478+P35030); assay: Stability of the compound assessed as trypsin (unknown origin)-mediated degradation by measuring half life using pH 7.4 PBS buffer by HPLC analysis; format: ADME, protein assay; details: trypsin in PBS buffer
[5] = Hemolytic activity in rabbit red blood cells assessed as hemoglobin release; format: ADME, cell-based, Oryctolagus cuniculus, Erythrocyte
HEK-293T = assay: Cytotoxicity against human HEK293T cells assessed as reduction in cell viability measured after 96 hrs b y CCK-8 assay; format: cell-based
A549 [6] = assay: Antimigratory activity against human A549 cells assessed as inhibition of cell migration measured for 24 hrs by crystal violet staining - light microscopy based transwell migration assay; format: functional; details: dose 0-4 µM
trypsin [7] = target: T1, trypsin; assay: Stability of the compound assessed as trypsin (unknown origin)-mediated degradation using pH 7.4 PBS buffer measured for 60 mins by HPLC analysis; format: ADME, protein assay; details: trypsin in PBS buffer, read-out: Drug degradation

Activity [2] [%]	half-life (trypsin [4]) [min]	metabolised at 1 h (trypsin [7]) [%]	Compound	IC50 (A549 [1]) [µM]	inhibition (A549 [3])	IC50 (LNCaP C4-2B) [µM]	HC50 [5] [µM]	IC50 (HEK-293T) [µM]	Activity (A549 [6])
51	36		CC(C)C[C@H](NC(=O)[C@H](CC(C)C)NC(=O)[C@H](CC(=O)O)NC(=O)[C@H](CCCCN)NC(=O)[C@H](Cc1ccccc1)NC(=O)CN)C(=O)N[C@@H](CCCCN)C(=O)NCC(=O)N[C@@H](C)C(=O)N[C@@H](C)C(=O)N[C@@H](CCCCN)C(=O)N[C@@]1(C)CCC/C=C\CCC[C@@](C)(C(=O)N[C@H](C(=O)N[C@@H](CC(C)C)C(=O)N[C@@H](Cc2ccccc2)C(N)=O)C(C)C)NC(=O)[C@H](CCCCN)NC(=O)[C@H](C(C)C)NC(=O)[C@H](CC(C)C)NC1=O (H-GFKDLLKGAAK[S5]LVK[S5]VLF-NH2; staple (Z) 12-16)	2.39	Dose-Dependent Effect	7.17	40.6	16.4	Dose-Dependent Effect
48			CC(C)C[C@H](NC(=O)[C@H](CC(=O)O)NC(=O)[C@H](CCCCN)NC(=O)[C@H](Cc1ccccc1)NC(=O)CN)C(=O)N[C@@H](CC(C)C)C(=O)N[C@@H](CCCCN)C(=O)N[C@@]1(C)CCC/C=C\CCC[C@@](C)(C(=O)N[C@@H](CC(C)C)C(=O)N[C@H](C(=O)N[C@@H](CCCCN)C(=O)N[C@H](C(=O)N[C@H](C(=O)N[C@@H](CC(C)C)C(=O)N[C@@H](Cc2ccccc2)C(N)=O)C(C)C)[C@@H](C)O)C(C)C)NC(=O)[C@H](CCCCN)NC(=O)[C@H](C)NC(=O)[C@H](C)NC1=O (H-GFKDLLK[S5]AAK[S5]LVKTVLF-NH2; staple (Z) 8-12)	2.57		7.88	40.2	19.7	
80			CC(C)C[C@@H]1NC(=O)[C@H](C)NC(=O)[C@H](CCCCN)NC(=O)[C@H](C)NC(=O)[C@@](C)(NC(=O)CNC(=O)[C@H](CCCCN)NC(=O)[C@H](CC(C)C)NC(=O)[C@H](CC(C)C)NC(=O)[C@H](CC(=O)O)NC(=O)[C@H](CCCCN)NC(=O)[C@H](Cc2ccccc2)NC(=O)CN)CCCCCC/C=C/CCC[C@@](C)(C(=O)N[C@H](C(=O)N[C@@H](CC(C)C)C(=O)N[C@@H](Cc2ccccc2)C(N)=O)C(C)C)NC(=O)[C@H](CCCCN)NC(=O)[C@H](C(C)C)NC1=O (H-GFKDLLKG[S8]AKALVK[S5]VLF-NH2; staple (E) 9-16)	11.7		17.3	90.5	44.3	
47	14	100	H-GFKDLLKGAAKALVKTVLF-NH2 [Ascaphin-8]	33.8		42.9	> 100	53.7	
42			CC(C)C[C@H](NC(=O)[C@H](C)NC(=O)[C@H](CCCCN)NC(=O)[C@H](C)NC(=O)[C@H](C)NC(=O)[C@]1(C)CCC/C=C\CCC[C@](C)(NC(=O)[C@H](CCCCN)NC(=O)[C@H](Cc2ccccc2)NC(=O)CN)C(=O)N[C@@H](CC(C)C)C(=O)N[C@@H](CC(C)C)C(=O)N[C@@H](CCCCN)C(=O)N1)C(=O)N[C@H](C(=O)N[C@@H](CCCCN)C(=O)N[C@H](C(=O)N[C@H](C(=O)N[C@@H](CC(C)C)C(=O)N[C@@H](Cc1ccccc1)C(N)=O)C(C)C)[C@@H](C)O)C(C)C (H-GFK[S5]LLK[S5]AAKALVKTVLF-NH2; staple (Z) 4-8)	4.1		11.1	79.9	33.9	
